ChEMBL document CHEMBL1201862, “PubChem BioAssay data set” (2004)
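Method: 48-hour compound exposure of cells in 96-well plates, five concentrations, linear interpolation of endpoints. GI50 is the concentration that inhibits growth by half.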 Active and inactive are the calls of the source. No stated cut-off is given here; in the data, active = GI50 up to about 1.1 µM and inactive = higher.

What was measured:
Test in all cases: inhibition of tumour cell growth, NCI panel, 48 h
SF-295 = system: SF-295
SF-268 = system: SF-268
Malme-3M = system: Malme-3M
SNB-19 = system: SNB-19
A498 = system: A498
OVCAR-5 = system: OVCAR-5
M14 = system: M14
K562 = system: K562
786-0 = system: 786-0
SN12C = system: SN12C
NCI-H522 = system: NCI-H522
IGROV-1 = system: IGROV-1
HOP-62 = system: HOP-62
Hs-578T = system: Hs-578T
CAKI-1 = system: CAKI-1
HCT-116 = system: HCT-116
MDA-MB-435 = system: MDA-MB-435
SR = system: SR
HT-29 = system: HT-29
MCF7 = system: MCF7
MDA-N = system: MDA-N
MDA-MB-231 = system: MDA-MB-231
ACHN = system: ACHN
OVCAR-8 = system: OVCAR-8
OVCAR-4 = system: OVCAR-4
MOLT-4 = system: MOLT-4
U-251 = system: U-251
NCI/ADR-RES = system: NCI/ADR-RES
COLO 205 = system: COLO 205
T47D = system: T47D
RXF 393 = system: RXF 393
SK-OV-3 = system: SK-OV-3
HCT-15 = system: HCT-15
NCI-H226 = system: NCI-H226
LOX IMVI = system: LOX IMVI
SF-539 = system: SF-539
A549 = system: A549
OVCAR-3 = system: OVCAR-3
KM12 = system: KM12
EKVX = system: EKVX
HCC 2998 = system: HCC 2998
DU-145 = system: DU-145
SK-MEL-2 = system: SK-MEL-2
PC-3 = system: PC-3
SK-MEL-28 = system: SK-MEL-28
SK-MEL-5 = system: SK-MEL-5
SW-620 = system: SW-620
SNB-75 = system: SNB-75
NCI-H460 = system: NCI-H460
UACC-62 = system: UACC-62
HOP-92 = system: HOP-92
RPMI-8226 = system: RPMI-8226
UO-31 = system: UO-31
HL-60 = system: HL-60
UACC-257 = system: UACC-257
CCRF-CEM = system: CCRF-CEM
NCI-H23 = system: NCI-H23
TK-10 = system: TK-10

## CSc1cc(Cl)c(C)cc1S(=O)(=O)NC(=O)NNc1ccc(Cl)cc1
SF-295
  GI50: > 100 µM (inactive)
SF-268
  GI50: > 100 µM (inactive)
Malme-3M
  GI50: > 100 µM (inactive)
SNB-19
  GI50: > 100 µM (inactive)
A498
  GI50: > 100 µM (inactive)
OVCAR-5
  GI50: > 100 µM (inactive)
M14
  GI50: > 100 µM (inactive)
K562
  GI50: > 100 µM (inactive)
786-0
  GI50: > 100 µM (inactive)
SN12C
  GI50: > 100 µM (inactive)
NCI-H522
  GI50: 70.3 µM (inactive)
IGROV-1
  GI50: > 100 µM (inactive)
HOP-62
  GI50: > 100 µM (inactive)
Hs-578T
  GI50: 34.1 µM (inactive)
CAKI-1
  GI50: 94.6 µM (inactive)
HCT-116
  GI50: > 100 µM (inactive)
MDA-MB-435
  GI50: > 100 µM (inactive)
SR
  GI50: 70 µM (inactive)
HT-29
  GI50: > 100 µM (inactive)
MCF7
  GI50: > 100 µM (inactive)
MDA-N
  GI50: > 100 µM (inactive)
MDA-MB-231
  GI50: > 100 µM (inactive)
ACHN
  GI50: 47.3 µM (inactive)
OVCAR-8
  GI50: > 100 µM (inactive)
OVCAR-4
  GI50: > 100 µM (inactive)
MOLT-4
  GI50: 46.6 µM (inactive)
U-251
  GI50: > 100 µM (inactive)
NCI/ADR-RES
  GI50: > 100 µM (inactive)
COLO 205
  GI50: > 100 µM (inactive)
T47D
  GI50: > 100 µM (inactive)
RXF 393
  GI50: 99.1 µM (inactive)
SK-OV-3
  GI50: > 100 µM (inactive)
HCT-15
  GI50: > 100 µM
NCI-H226
  GI50: 56 µM (inactive)
LOX IMVI
  GI50: > 100 µM (inactive)
SF-539
  GI50: 40.1 µM (inactive)
A549
  GI50: > 100 µM (inactive)
OVCAR-3
  GI50: > 100 µM (inactive)
KM12
  GI50: > 100 µM (inactive)
EKVX
  GI50: > 100 µM (inactive)
HCC 2998
  GI50: 36.2 µM (inactive)
DU-145
  GI50: > 100 µM (inactive)
SK-MEL-2
  GI50: > 100 µM (inactive)
PC-3
  GI50: 80.5 µM (inactive)
SK-MEL-28
  GI50: > 100 µM (inactive)
SK-MEL-5
  GI50: 69.5 µM (inactive)
SW-620
  GI50: > 100 µM (inactive)
SNB-75
  GI50: > 100 µM (inactive)
NCI-H460
  GI50: > 100 µM (inactive)

## CCOC(=O)NC(N(C)C(C(C)C)P(=O)(OCC)OCC)(C(F)(F)F)C(F)(F)F (stereo not given)
SF-295
  GI50: > 100 µM (inactive)
UACC-62
  GI50: > 100 µM (inactive)
SF-268
  GI50: > 100 µM (inactive)
Malme-3M
  GI50: > 100 µM (inactive)
HOP-92
  GI50: > 100 µM (inactive)
SNB-19
  GI50: > 100 µM (inactive)
A498
  GI50: > 100 µM (inactive)
OVCAR-5
  GI50: > 100 µM (inactive)
M14
  GI50: > 100 µM (inactive)
RPMI-8226
  GI50: > 100 µM (inactive)
K562
  GI50: > 100 µM (inactive)
786-0
  GI50: > 100 µM (inactive)
SN12C
  GI50: > 100 µM (inactive)
NCI-H522
  GI50: > 100 µM (inactive)
IGROV-1
  GI50: > 100 µM (inactive)
HOP-62
  GI50: > 100 µM (inactive)
Hs-578T
  GI50: > 100 µM (inactive)
CAKI-1
  GI50: > 100 µM (inactive)
HCT-116
  GI50: > 100 µM (inactive)
UO-31
  GI50: > 100 µM (inactive)
MDA-MB-435
  GI50: > 100 µM (inactive)
SR
  GI50: > 100 µM (inactive)
HT-29
  GI50: > 100 µM (inactive)
MCF7
  GI50: > 100 µM (inactive)
HL-60
  GI50: > 100 µM (inactive)
MDA-N
  GI50: > 100 µM (inactive)
MDA-MB-231
  GI50: > 100 µM (inactive)
ACHN
  GI50: > 100 µM (inactive)
OVCAR-8
  GI50: > 100 µM (inactive)
UACC-257
  GI50: > 100 µM (inactive)
OVCAR-4
  GI50: > 100 µM (inactive)
MOLT-4
  GI50: > 100 µM (inactive)
U-251
  GI50: > 100 µM (inactive)
CCRF-CEM
  GI50: > 100 µM (inactive)
NCI/ADR-RES
  GI50: > 100 µM (inactive)
COLO 205
  GI50: > 100 µM (inactive)
T47D
  GI50: > 100 µM (inactive)
RXF 393
  GI50: > 100 µM (inactive)
HCT-15
  GI50: > 100 µM
NCI-H226
  GI50: > 100 µM (inactive)
LOX IMVI
  GI50: > 100 µM (inactive)
SF-539
  GI50: > 100 µM (inactive)
NCI-H23
  GI50: > 100 µM (inactive)
A549
  GI50: > 100 µM (inactive)
OVCAR-3
  GI50: > 100 µM (inactive)
KM12
  GI50: > 100 µM (inactive)
EKVX
  GI50: > 100 µM (inactive)
DU-145
  GI50: > 100 µM (inactive)
SK-MEL-2
  GI50: > 100 µM (inactive)
PC-3
  GI50: > 100 µM (inactive)
SK-MEL-28
  GI50: > 100 µM (inactive)
TK-10
  GI50: > 100 µM (inactive)
SK-MEL-5
  GI50: > 100 µM (inactive)
SW-620
  GI50: 4.68 µM (inactive)
SNB-75
  GI50: > 100 µM (inactive)
NCI-H460
  GI50: > 100 µM (inactive)
